In patent US4156724A, “N-acylamino-alpha-arylacetamido cephalosporins and antibacterial compositions and methods containing them” (Sumitomo Chemical Company, Limited, priority 1974, dated 1979):
In brackets after ≈: the same amount, converted by molar mass.

Tests used:
Assay type in all cases: cell-based
[1] = tested on: Enterobacter aerogeneus No. 75; assay: Minimum Inhibitory Concentration, Enterobacter aerogeneus No. 75; conditions: Enterobacter aerogeneus No. 75; for MIC: read-out: Minimum Inhibitory Concentration
Experimental: (§1) anti-microbial activity tests were carried out on the compounds obtained in the Examples.

[2] = tested on: Escherichia coli NIHJ; assay: Minimum Inhibitory Concentration, Escherichia coli NIHJ; conditions: Escherichia coli NIHJ; for MIC: read-out: Minimum Inhibitory Concentration
Experimental: as §1

[3] = tested on: Klebsiella pneumoniae 602; assay: Minimum Inhibitory Concentration, Klebsiella pneumoniae 602; conditions: for MIC: Klebsiella pneumoniae, 602, Klebsiella pneumoniae 602, read-out: Minimum Inhibitory Concentration
Experimental: as §1

[4] = tested on: Proteus vulgaris HX 19; assay: Minimum Inhibitory Concentration, Proteus vulgaris HX 19; conditions: Proteus vulgaris HX 19; for MIC: HX19, read-out: Minimum Inhibitory Concentration
Experimental: as §1

[5] = tested on: Staphylococcus aureus FS 289; assay: Minimum Inhibitory Concentration, Staphylococcus aureus FS 289; conditions: Staphylococcus aureus FS 289, strain resistant to penicillin; for MIC: FS289, read-out: Minimum Inhibitory Concentration
Experimental: as §1
*Staphylococcus aureus FS 289: strain resistant to penicillin

[6] = tested on: Serratia No. 72; assay: Minimum Inhibitory Concentration, Serratia No. 72
Experimental: as §1

[7] = tested on: Staphylococcus aureus 209 P; assay: Minimum Inhibitory Concentration, Staphylococcus aureus 209 P; conditions: Staphylococcus aureus 209 P; for MIC: read-out: Minimum Inhibitory Concentration
Experimental: as §1

[8] = tested on: Pseudomonas aeruginosa 104; assay: Minimum Inhibitory Concentration, Pseudomonas aeruginosa 104; conditions: Pseudomonas aeruginosa 104; for MIC: read-out: Minimum Inhibitory Concentration
Experimental: as §1

MIC [1]	MIC [2]	MIC [3]	MIC [4]	MIC [5]	MIC [6]	MIC [7]	MIC [8]	SMILES	Minimum Inhibitory Concentration [1]	Minimum Inhibitory Concentration [2]	Minimum Inhibitory Concentration ([3]; Klebsiella pneumoniae 602)	Minimum Inhibitory Concentration [4]	Minimum Inhibitory Concentration [5]	Minimum Inhibitory Concentration [6]	Minimum Inhibitory Concentration [7]	Minimum Inhibitory Concentration [8]
6.25 µg/mL (≈ 9.95 µM)	3.13 µg/mL (≈ 4.98 µM)	3.13 µg/mL (≈ 4.98 µM)	0.39 µg/mL (≈ 0.621 µM)	6.25 µg/mL (≈ 9.95 µM)	50 µg/mL (≈ 79.6 µM)	0.78 µg/mL (≈ 1.24 µM)	6.25 µg/mL (≈ 9.95 µM)	CC(=O)OCC1=C(C(=O)O)N2C(=O)C(NC(=O)[C@H](NC(=O)c3cnc4cccnc4c3O)c3ccc(O)c(Cl)c3)C2SC1 (stereo partly drawn) [Example 122]	–	–	–	–	–	–	–	–
6.25 µg/mL (≈ 9.03 µM)	1.56 µg/mL (≈ 2.26 µM)	3.13 µg/mL (≈ 4.52 µM)	0.1 µg/mL (≈ 0.145 µM)	6.25 µg/mL (≈ 9.03 µM)	12.5 µg/mL (≈ 18.1 µM)	0.78 µg/mL (≈ 1.13 µM)	3.13 µg/mL (≈ 4.52 µM)	CN(C)c1ccc2ncc(C(=O)NC(C(=O)NC3C(=O)N4C(C(=O)O)=C(CSc5nnnn5C)CSC34)c3cccc(N)c3)c(O)c2n1 (stereo not drawn) [Example 74]	–	–	–	–	–	–	–	–
25 µg/mL (≈ 46 µM)	12.5 µg/mL (≈ 23 µM)	25 µg/mL (≈ 46 µM)	0.39 µg/mL (≈ 0.718 µM)	6.25 µg/mL (≈ 11.5 µM)	> 200 µg/mL	0.39 µg/mL (≈ 0.718 µM)	6.25 µg/mL (≈ 11.5 µM)	CC(=O)OCC1=C(C(=O)O)N2C(=O)C(NC(=O)[C@H](NC(=O)c3cncnc3O)c3ccc(O)cc3)C2SC1 (stereo partly drawn) [Example 118]	–	–	–	–	–	–	–	–
3.13 µg/mL (≈ 4.93 µM)	3.13 µg/mL (≈ 4.93 µM)	1.56 µg/mL (≈ 2.46 µM)	0.1 µg/mL (≈ 0.158 µM)	3.13 µg/mL (≈ 4.93 µM)	25 µg/mL (≈ 39.4 µM)	0.78 µg/mL (≈ 1.23 µM)	3.13 µg/mL (≈ 4.93 µM)	O=C(O)C1=C(CSc2cnn[nH]2)CSC2C(NC(=O)[C@H](NC(=O)c3cnc4cccnc4c3O)c3ccc(O)cc3)C(=O)N12 (stereo partly drawn) [Example 134]	–	–	–	–	–	–	–	–
–	–	–	–	–	–	–	–	CC(=O)OCC1=C(C(=O)[O-])N2C(=O)C(NC(=O)C(NC(=O)c3cnc4cccnc4c3O)c3ccc(O)c(F)c3)C2SC1.[Na+] (stereo not drawn) [Example 145]	12.5 µg/mL	3.13 µg/mL	3.13 µg/mL	0.39 µg/mL	6.25 µg/mL	100 µg/mL	0.78 µg/mL	6.25 µg/mL
3.13 µg/mL (≈ 4.82 µM)	3.13 µg/mL (≈ 4.82 µM)	1.56 µg/mL (≈ 2.4 µM)	0.1 µg/mL (≈ 0.154 µM)	3.13 µg/mL (≈ 4.82 µM)	25 µg/mL (≈ 38.5 µM)	0.78 µg/mL (≈ 1.2 µM)	3.13 µg/mL (≈ 4.82 µM)	Cn1nnc(SCC2=C(C(=O)O)N3C(=O)C(NC(=O)[C@H](NC(=O)c4cnc5cccnc5c4O)c4ccc(O)cc4)C3SC2)n1 (stereo partly drawn) [Example 133]	–	–	–	–	–	–	–	–
25 µg/mL (≈ 44.8 µM)	12.5 µg/mL (≈ 22.4 µM)	25 µg/mL (≈ 44.8 µM)	0.78 µg/mL (≈ 1.4 µM)	3.13 µg/mL (≈ 5.6 µM)	> 200 µg/mL	0.78 µg/mL (≈ 1.4 µM)	12.5 µg/mL (≈ 22.4 µM)	CC(=O)OCC1=C(C(=O)O)N2C(=O)C(NC(=O)C(NC(=O)c3cnccc3O)c3ccc(O)c(O)c3)C2SC1 (stereo not drawn) [Example 182]	–	–	–	–	–	–	–	–
12.5 µg/mL (≈ 20.8 µM)	6.25 µg/mL (≈ 10.4 µM)	6.25 µg/mL (≈ 10.4 µM)	0.1 µg/mL (≈ 0.166 µM)	6.25 µg/mL (≈ 10.4 µM)	50 µg/mL (≈ 83.2 µM)	0.39 µg/mL (≈ 0.649 µM)	6.25 µg/mL (≈ 10.4 µM)	Nc1cccc(C(NC(=O)c2ccnnc2O)C(=O)NC2C(=O)N3C(C(=O)O)=C(CSc4nncs4)CSC23)c1 (stereo not drawn) [Example 59]	–	–	–	–	–	–	–	–
12.5 µg/mL (≈ 18.6 µM)	12.5 µg/mL (≈ 18.6 µM)	3.13 µg/mL (≈ 4.65 µM)	0.39 µg/mL (≈ 0.58 µM)	6.25 µg/mL (≈ 9.29 µM)	50 µg/mL (≈ 74.3 µM)	0.78 µg/mL (≈ 1.16 µM)	12.5 µg/mL (≈ 18.6 µM)	NC(=O)Nc1ccc(C(NC(=O)c2cnccc2O)C(=O)NC2C(=O)N3C(C(=O)O)=C(CSc4nnc(CO)s4)CSC23)cc1 (stereo not drawn) [Example 47]	–	–	–	–	–	–	–	–
6.25 µg/mL (≈ 8.96 µM)	6.25 µg/mL (≈ 8.96 µM)	3.13 µg/mL (≈ 4.49 µM)	0.39 µg/mL (≈ 0.559 µM)	6.25 µg/mL (≈ 8.96 µM)	12.5 µg/mL (≈ 17.9 µM)	0.78 µg/mL (≈ 1.12 µM)	6.25 µg/mL (≈ 8.96 µM)	Cn1nnnc1SCC1=C(C(=O)O)N2C(=O)C(NC(=O)C(NC(=O)c3cnc4scnc4c3O)c3cccc(NC(N)=O)c3)C2SC1 (stereo not drawn) [Example 44]	–	–	–	–	–	–	–	–
25 µg/mL (≈ 42.8 µM)	12.5 µg/mL (≈ 21.4 µM)	12.5 µg/mL (≈ 21.4 µM)	0.2 µg/mL (≈ 0.342 µM)	3.13 µg/mL (≈ 5.35 µM)	> 200 µg/mL	0.39 µg/mL (≈ 0.667 µM)	6.25 µg/mL (≈ 10.7 µM)	CC(=O)OCC1=C(C(=O)O)N2C(=O)[C@@H](NC(=O)[C@H](NC(=O)c3cnccc3O)c3ccc(NC(N)=O)cc3)[C@H]2SC1 [Example 1, 7-[D-α-(4-Hydroxypyridine-3-carboxyamido)-α-p-ureidophenylacetamido]cephalosporanic Acid]	–	–	–	–	–	–	–	–
6.25 µg/mL (≈ 10.5 µM)	3.13 µg/mL (≈ 5.28 µM)	1.56 µg/mL (≈ 2.63 µM)	0.39 µg/mL (≈ 0.658 µM)	6.25 µg/mL (≈ 10.5 µM)	50 µg/mL (≈ 84.4 µM)	1.56 µg/mL (≈ 2.63 µM)	6.25 µg/mL (≈ 10.5 µM)	CC(=O)OCC1=C(C(=O)O)N2C(=O)C(NC(=O)C(NC(=O)c3cnc4cccnc4c3O)c3cccc(N)c3)C2SC1 (stereo not drawn) [Example 53]	–	–	–	–	–	–	–	–
